Test results from ChEMBL document CHEMBL4251610, “Branching tryptamines as a tool to tune their antiproliferative activity” (Eur J Med Chem, 2018).

Tests used:
Type in all cases: functional, cell-based
[1] = test system: HEK293; experiment: Antiproliferative activity against HEK293 cells after 24 hrs by MTT assay; conditions: Homo sapiens, HEK293, 24 h
[2] = test system: Jurkat; experiment: Antiproliferative activity against human Jurkat cells after 24 hrs by MTT assay
[3] = test system: HepG2; experiment: Antiproliferative activity against human HepG2 cells after 24 hrs by MTT assay; conditions: HepG2, 24 h
[4] = test system: SH-SY5Y; experiment: Antiproliferative activity against human SH-SY5Y cells after 24 hrs by MTT assay

Row | SMILES | IC50 [1] [µM] | IC50 [2] [µM] | IC50 [3] [µM] | IC50 [4] [µM]
1 | COc1ccc(C(N)Cc2c(C)[nH]c3ccc(Br)cc23)cc1 (configuration not stated) | 18.7 | 8.14 | 7.12 | 17.8
2 | Cc1[nH]c2ccc(Br)cc2c1CC(N)c1ccc(F)cc1 (configuration not stated) | 23.2 | 11.8 | 9.58 | 22.9
3 | COc1cc(CNCCc2c(C)[nH]c3ccc(F)cc23)cc2c1OCO2 | 17.7 | 13.9 | 16.4 | 12.5
4 | Cc1[nH]c2ccc(F)cc2c1CCNCc1ccccc1 | 21.4 | 12.9 | 14.7 | 25
5 | COc1cc(CNC(Cc2c(C)[nH]c3ccc(F)cc23)c2ccccc2)cc2c1OCO2 (configuration not stated) | 54.9 | 14.5 | 15.6 | 20
6 | Cc1c(CCN)c2cc(F)ccc2n1Cc1ccccc1 | 17.2 | 13.5 | 19.7 | 13.1
7 | Cc1[nH]c2ccc(-c3ccccc3)cc2c1CC(NCc1ccccc1)c1ccccc1 (configuration not stated) | 20.1 | 8.88 | 45.5 | 20.1
8 | Cc1[nH]c2ccc(F)cc2c1CC(NCc1ccccc1)c1ccccc1 (configuration not stated) | 65.2 | 13.8 | 19.4 | 20.2
9 | COc1cc(CNCCc2c(C)[nH]c3ccc(-c4ccccc4)cc23)cc2c1OCO2 | 8.27 | 1.51 | 1.37 | 9.07
10 | Cc1[nH]c2ccc(Br)cc2c1CC(N)c1cc(Cl)cc(Cl)c1 (configuration not stated) | 30.9 | 9.55 | 14.8 | 27.6
11 | Cc1ccc2[nH]c(C)c(CC(N)c3ccccc3)c2c1 (configuration not stated) | 94 | 13.2 | 17.1 | 46.1
12 | Cc1[nH]c2ccc(Br)cc2c1C[C@H](N)c1ccccc1 | 34.8 | 13.8 | 10.8 | 25.2
13 | Cc1c(CCN)c2cc(-c3ccccc3)ccc2n1Cc1ccccc1 | 15.4 | 3.82 | 1.9 | 12.2
14 | Cc1c(CC(N)c2ccccc2)c2cc(F)ccc2n1Cc1ccccc1 (configuration not stated) | 16.7 | 14 | 13.1 | 15
15 | Cc1[nH]c2ccccc2c1CC(N)c1ccccc1 (configuration not stated) | 109 | 15.5 | 16.7 | 117
16 | Cc1[nH]c2ccc(-c3ccccc3)cc2c1CCNCc1ccccc1 | 16.6 | 1.45 | 1.49 | 5.71
17 | Cc1[nH]c2ccc(F)cc2c1CC(N)c1ccccc1 (configuration not stated) | 73.5 | 15.2 | 15.8 | 59.1
18 | Cc1[nH]c2ccc(Br)cc2c1CC(N)c1ccc(Cl)cc1 (configuration not stated) | 18.4 | 7.5 | 8.43 | 18.6
19 | Cc1ccc(C(N)Cc2c(C)[nH]c3ccc(Br)cc23)cc1 (configuration not stated) | 23.2 | 9.86 | 7.76 | 21.9
20 | Cc1[nH]c2ccc(-c3ccccc3)cc2c1CC(N)c1ccccc1 (configuration not stated) | 10.1 | 1.58 | 1.82 | 12.5
21 | Cc1[nH]c2ccc(F)cc2c1CCN | > 100 | > 100 | > 100 | > 100
22 | Cc1c(CC(N)c2ccccc2)c2cc(-c3ccccc3)ccc2n1Cc1ccccc1 (configuration not stated) | 16.3 | 1.9 | 1.46 | 11.9
23 | Cc1[nH]c2ccc(Br)cc2c1CC(N)c1ccccc1 (configuration not stated) | 39.4 | 20.4 | 14 | 42.7
